Species: Rattus norvegicus
Test: DrugMatrix - Regimen: Daily Repeat
Format: toxicity, organism-based, Sprague-Dawley
Parameters: regimen Daily Repeat, gender Male, age 6-8 weeks
Conditions: in vivo, po, route oral GAVAGE, vehicle .5 % CMC; for BASOPHIL / EOSINOPHIL / ERYTHROCYTE COUNT / HEMATOCRIT / HEMOGLOBIN / LEUKOCYTE COUNT / LYMPHOCYTE / MEAN CORPUSCULAR HEMOGLOBIN / MEAN CORPUSCULAR HEMOGLOBIN CONCENTRATION / MEAN CORPUSCULAR VOLUME / MONOCYTE / NEUTROPHIL / PLATELET COUNT: tissue Blood; for ALANINE AMINOTRANSFERASE / ALBUMIN / ALKALINE PHOSPHATASE / ASPARTATE AMINOTRANSFERASE / BLOOD UREA NITROGEN / CHLORIDE / CHOLESTEROL / CREATINE PHOSPHOKINASE / CREATININE / GLUCOSE / PHOSPHORUS / POTASSIUM / SODIUM / TOTAL PROTEIN: tissue Plasma
[1] = 0 mg/kg, 72 h, dose level Control, time 3 day
[2] = 0 mg/kg, 120 h, dose level Control, time 5 day
[3] = 28 mg/kg, 72 h, dose level Low, time 3 day
[4] = 28 mg/kg, 120 h, dose level Low, time 5 day
[5] = 2000 mg/kg, 72 h, dose level High, time 3 day
[6] = 2000 mg/kg, 120 h, dose level High, time 5 day

CCN1CCN(c2cc3c(cc2F)c(=O)c(C(=O)O)cn3C2CC2)CC1 [ENROFLOXACIN]
BASOPHIL [1]: 0%
EOSINOPHIL [1]: 0.4%
ERYTHROCYTE COUNT [1]: 6.43 x10E6/uL
HEMATOCRIT [1]: 37.36%
HEMOGLOBIN [1]: 13.98 G/DL
LEUKOCYTE COUNT [1]: 13 x10E3/uL
LYMPHOCYTE [1]: 81.4%
MEAN CORPUSCULAR HEMOGLOBIN [1]: 21.9 pg
MEAN CORPUSCULAR HEMOGLOBIN CONCENTRATION [1]: 37.4 G/DL
MEAN CORPUSCULAR VOLUME [1]: 58.52 fL
MONOCYTE [1]: 0.4%
NEUTROPHIL [1]: 18%
PLATELET COUNT [1]: 1386 x10E3/uL
ALANINE AMINOTRANSFERASE [1]: 39.33 u/L
ALBUMIN [1]: 3.57 G/DL
ALKALINE PHOSPHATASE [1]: 283.83 u/L
ASPARTATE AMINOTRANSFERASE [1]: 69.5 u/L
BLOOD UREA NITROGEN [1]: 14.83 mg/dL
CHLORIDE [1]: 107.33 MEQ/L
CHOLESTEROL [1]: 75.17 mg/dL
CREATINE PHOSPHOKINASE [1]: 107.67 u/L
CREATININE [1]: 0.48 mg/dL
GLUCOSE [1]: 172.5 mg/dL
PHOSPHORUS [1]: 10.48 mg/dL
POTASSIUM [1]: 6.9 MEQ/L
SODIUM [1]: 152.33 MEQ/L
TOTAL PROTEIN [1]: 5.9 G/DL
BASOPHIL [2]: 0%
EOSINOPHIL [2]: 0.4%
ERYTHROCYTE COUNT [2]: 6.96 x10E6/uL
HEMATOCRIT [2]: 41.12%
HEMOGLOBIN [2]: 15.24 G/DL
LEUKOCYTE COUNT [2]: 11.06 x10E3/uL
LYMPHOCYTE [2]: 88.6%
MEAN CORPUSCULAR HEMOGLOBIN [2]: 21.96 pg
MEAN CORPUSCULAR HEMOGLOBIN CONCENTRATION [2]: 37.1 G/DL
MEAN CORPUSCULAR VOLUME [2]: 59.12 fL
MONOCYTE [2]: 0.2%
NEUTROPHIL [2]: 10.8%
PLATELET COUNT [2]: 1155.8 x10E3/uL
ALANINE AMINOTRANSFERASE [2]: 36.33 u/L
ALBUMIN [2]: 3.72 G/DL
ALKALINE PHOSPHATASE [2]: 340.33 u/L
ASPARTATE AMINOTRANSFERASE [2]: 68.33 u/L
BLOOD UREA NITROGEN [2]: 15 mg/dL
CHLORIDE [2]: 108.17 MEQ/L
CHOLESTEROL [2]: 74.67 mg/dL
CREATINE PHOSPHOKINASE [2]: 110.67 u/L
CREATININE [2]: 0.47 mg/dL
GLUCOSE [2]: 171.33 mg/dL
PHOSPHORUS [2]: 10.05 mg/dL
POTASSIUM [2]: 6.7 MEQ/L
SODIUM [2]: 155.5 MEQ/L
TOTAL PROTEIN [2]: 6.33 G/DL
BASOPHIL [3]: 0%
EOSINOPHIL [3]: 0.33%
ERYTHROCYTE COUNT [3]: 6.63 x10E6/uL
HEMATOCRIT [3]: 40.9%
HEMOGLOBIN [3]: 15.27 G/DL
LEUKOCYTE COUNT [3]: 15.3 x10E3/uL
LYMPHOCYTE [3]: 87.67%
MEAN CORPUSCULAR HEMOGLOBIN [3]: 23.03 pg
MEAN CORPUSCULAR HEMOGLOBIN CONCENTRATION [3]: 37.33 G/DL
MEAN CORPUSCULAR VOLUME [3]: 61.73 fL
MONOCYTE [3]: 0.33%
NEUTROPHIL [3]: 11.67%
PLATELET COUNT [3]: 1320.33 x10E3/uL
ALANINE AMINOTRANSFERASE [3]: 35.67 u/L
ALBUMIN [3]: 3.53 G/DL
ALKALINE PHOSPHATASE [3]: 256 u/L
ASPARTATE AMINOTRANSFERASE [3]: 57 u/L
BLOOD UREA NITROGEN [3]: 14 mg/dL
CHLORIDE [3]: 106.67 MEQ/L
CHOLESTEROL [3]: 68.67 mg/dL
CREATINE PHOSPHOKINASE [3]: 123 u/L
CREATININE [3]: 0.5 mg/dL
GLUCOSE [3]: 170 mg/dL
PHOSPHORUS [3]: 11.27 mg/dL
POTASSIUM [3]: 6.83 MEQ/L
SODIUM [3]: 151.67 MEQ/L
TOTAL PROTEIN [3]: 5.93 G/DL
BASOPHIL [4]: 0%
EOSINOPHIL [4]: 0.67%
ERYTHROCYTE COUNT [4]: 7.38 x10E6/uL
HEMATOCRIT [4]: 43.67%
HEMOGLOBIN [4]: 15.73 G/DL
LEUKOCYTE COUNT [4]: 15.77 x10E3/uL
LYMPHOCYTE [4]: 91%
MEAN CORPUSCULAR HEMOGLOBIN [4]: 21.23 pg
MEAN CORPUSCULAR HEMOGLOBIN CONCENTRATION [4]: 35.97 G/DL
MEAN CORPUSCULAR VOLUME [4]: 58.97 fL
MONOCYTE [4]: 0%
NEUTROPHIL [4]: 8.33%
PLATELET COUNT [4]: 1186 x10E3/uL
ALANINE AMINOTRANSFERASE [4]: 39 u/L
ALBUMIN [4]: 3.77 G/DL
ALKALINE PHOSPHATASE [4]: 351 u/L
ASPARTATE AMINOTRANSFERASE [4]: 67.67 u/L
BLOOD UREA NITROGEN [4]: 13.67 mg/dL
CHLORIDE [4]: 115 MEQ/L
CHOLESTEROL [4]: 67.33 mg/dL
CREATINE PHOSPHOKINASE [4]: 110 u/L
CREATININE [4]: 0.6 mg/dL
GLUCOSE [4]: 194.33 mg/dL
PHOSPHORUS [4]: 10 mg/dL
POTASSIUM [4]: 6.77 MEQ/L
SODIUM [4]: 161.67 MEQ/L
TOTAL PROTEIN [4]: 6.37 G/DL
BASOPHIL [5]: 0%
EOSINOPHIL [5]: 0%
ERYTHROCYTE COUNT [5]: 6.71 x10E6/uL
HEMATOCRIT [5]: 40.2%
HEMOGLOBIN [5]: 15 G/DL
LEUKOCYTE COUNT [5]: 9.93 x10E3/uL
LYMPHOCYTE [5]: 94%
MEAN CORPUSCULAR HEMOGLOBIN [5]: 22.37 pg
MEAN CORPUSCULAR HEMOGLOBIN CONCENTRATION [5]: 37.33 G/DL
MEAN CORPUSCULAR VOLUME [5]: 59.87 fL
MONOCYTE [5]: 0.33%
NEUTROPHIL [5]: 5.67%
PLATELET COUNT [5]: 1314.33 x10E3/uL
ALANINE AMINOTRANSFERASE [5]: 34 u/L
ALBUMIN [5]: 3.4 G/DL
ALKALINE PHOSPHATASE [5]: 233.33 u/L
ASPARTATE AMINOTRANSFERASE [5]: 47.33 u/L
BLOOD UREA NITROGEN [5]: 13.33 mg/dL
CHLORIDE [5]: 107.67 MEQ/L
CHOLESTEROL [5]: 72.67 mg/dL
CREATINE PHOSPHOKINASE [5]: 92.33 u/L
CREATININE [5]: 0.67 mg/dL
GLUCOSE [5]: 183.33 mg/dL
PHOSPHORUS [5]: 11.5 mg/dL
POTASSIUM [5]: 7.2 MEQ/L
SODIUM [5]: 152.67 MEQ/L
TOTAL PROTEIN [5]: 5.53 G/DL
BASOPHIL [6]: 0%
EOSINOPHIL [6]: 0%
ERYTHROCYTE COUNT [6]: 7.19 x10E6/uL
HEMATOCRIT [6]: 42.1%
HEMOGLOBIN [6]: 14.8 G/DL
LEUKOCYTE COUNT [6]: 14.2 x10E3/uL
LYMPHOCYTE [6]: 97.67%
MEAN CORPUSCULAR HEMOGLOBIN [6]: 20.57 pg
MEAN CORPUSCULAR HEMOGLOBIN CONCENTRATION [6]: 35.17 G/DL
MEAN CORPUSCULAR VOLUME [6]: 58.63 fL
MONOCYTE [6]: 0%
NEUTROPHIL [6]: 2.33%
PLATELET COUNT [6]: 1312.33 x10E3/uL
ALANINE AMINOTRANSFERASE [6]: 39 u/L
ALBUMIN [6]: 3.43 G/DL
ALKALINE PHOSPHATASE [6]: 266 u/L
ASPARTATE AMINOTRANSFERASE [6]: 50 u/L
BLOOD UREA NITROGEN [6]: 11.67 mg/dL
CHLORIDE [6]: 104 MEQ/L
CHOLESTEROL [6]: 56 mg/dL
CREATINE PHOSPHOKINASE [6]: 95.33 u/L
CREATININE [6]: 0.6 mg/dL
GLUCOSE [6]: 152.67 mg/dL
PHOSPHORUS [6]: 11.4 mg/dL
POTASSIUM [6]: 6.03 MEQ/L
SODIUM [6]: 150.67 MEQ/L
TOTAL PROTEIN [6]: 5.53 G/DL

From ChEMBL document CHEMBL3885881, “DrugMatrix”
